Assay results published in ChEMBL document CHEMBL5260813, “An overview on the recent developments of 1,2,4-triazine derivatives as anticancer compounds” (Eur J Med Chem, 2017).

Experiments:
[1] = test system: MDA-MB-468; assay: Antiproliferative activity against human MDA-MB-468 cells assessed as reduction in cell viability; assay type: functional
[2] = test system: OVCAR-4; assay: Antiproliferative activity against human OVCAR-4 cells assessed as cell growth inhibition; assay type: functional, cell-based
[3] = test system: CAKI-1; assay: Antiproliferative activity against human CAKI-1 cells assessed as inhibition of cell growth; assay type: functional, cell-based
[4] = test system: PC-3; assay: Antiproliferative activity against human PC-3 cells assessed as inhibition of cell growth measured after 48 hrs by MTT assay; assay type: functional, cell-based; details: PC-3, 48 h
[5] = test system: MCF7; assay: Antiproliferative activity against human MCF7 cells assessed as inhibition of cell growth measured after 48 hrs by MTT assay; assay type: functional, cell-based; details: MCF7, 48 h
[6] = test system: NCI-H460; assay: Antiproliferative activity against human NCI-H460 cells assessed as inhibition of cell growth measured after 48 hrs by MTT assay; assay type: functional, cell-based; details: NCI-H460, 48 h
[7] = target: Fibroblast growth factor receptor (Homo sapiens, UniProt P22607+P11362+P22455+P21802); assay: Inhibition of FGFR (unknown origin); assay type: protein assay
[8] = test system: Panel NCI-60 (60 carcinoma cell lines); assay: Antiproliferative activity against human Panel NCI-60 (60 carcinoma cell lines) cells assessed as inhibition of cell growth; assay type: functional, cell-based

In the case of `CC(C)c1ccc(-c2nn3nnc4ccccc4c3nc2=O)cc1`, the GI50 [1] is reported as 410 nM.

With `Cc1nn(C)c2nn3nnnc3nc12` the IC50 [2] was 1120 nM, the IC50 [3] was 1120 nM and the IC50 [4] was 400 nM. For the same compound, the IC50 [5] was 400 nM and the IC50 [6] was 400 nM.

`CCn1c(=O)c(-c2cc(OC)cc(OC)c2)cc2nnc(Nc3ccncc3)nc21` gave an IC50 [7] of 350 nM.

Work on `Cc1c(C#N)c2nnc(C(N)=O)c(N)n2c1-c1ccccc1` yielded an IC50 [2] of 2770 nM and an IC50 [8] of 3340 nM.
